Assays:
Format in all cases: in vivo
Settings in all cases: 312 h, evaluated after 13 days, 100=total damage to plant, 0=no damage to plant
[1] = system: Amaranthus palmeri (AMAPA); assay: Pre-emergence biological efficacy
Protocol: (§1) Seeds of weeds and/or crops were sown in standard soil in pots (Amaranthus palmeri (AMAPA), Lolium perenne (LOLPE), Euphorbia heterophylla (EPHHL), Ipomoea hederacea (IPOHE), Setaria faberi (SETFA), Echinochloa crus-galli (ECHCG)). After cultivation for one day under controlled conditions in a glasshouse (at 24/19° C., day/night; 16 hours light), the plants were sprayed with an aqueous spray solution derived from the formulation of the technical active ingredient in a small amount of acetone and a special solvent and emulsifier mixture referred to as IF50 (11.12% Emulsogen EL360™+44.44% N-methylpyrrolidone+44.44% Dowanol DPM glycol ether), to create a 50 g/l solution which was then diluted using 0.2% Genapol XO80 as diluent to give the desired final dose of test compound.
(§2) The test plants were then grown under controlled conditions in the glasshouse (at 24/18° C., day/night; 15 hours light; 50% humidity) and watered twice daily. After 13 days the test was evaluated (100=total damage to plant; 0=no damage to plant).

[2] = system: Euphorbia heterophylla (EPHHL); assay: Pre-emergence biological efficacy
Protocol: as §1, §2

[3] = system: Ipomoea hederacea (IPOHE); assay: Pre-emergence biological efficacy
Protocol: as §1, §2

[4] = system: Setaria faberi (SETFA); assay: Pre-emergence biological efficacy
Protocol: as §1, §2

[5] = system: Lolium perenne (LOLPE); assay: Pre-emergence biological efficacy
Protocol: as §1, §2

[6] = system: Echinochloa crus-galli (ECHCG); assay: Pre-emergence biological efficacy
Protocol: as §1, §2

[7] = system: Digitaria sanguinalis (DIGSA); assay: Post-emergence biological efficacy
Protocol: as §1, with “Chenopodium album (CHEAL),” for “Lolium perenne (LOLPE),”, “(IPOHE), Eleusine indica (ELEIN), Lolium perenne (LOLPE), Digitaria sanguinalis (DIGSA),” for “(IPOHE),”, “14 days” for “one day”, “compound. The test plants were then grown under controlled conditions in the glasshouse (at 24/18° C., day/night; 15 hours light; 50% humidity) and watered twice daily. After 13 days the test was evaluated (100=total damage to plant; 0=no damage to plant).” for “compound.”

[8] = system: Amaranthus palmeri (AMAPA); assay: Post-emergence biological efficacy
Protocol: as §1, with “Chenopodium album (CHEAL),” for “Lolium perenne (LOLPE),”, “(IPOHE), Eleusine indica (ELEIN), Lolium perenne (LOLPE), Digitaria sanguinalis (DIGSA),” for “(IPOHE),”, “14 days” for “one day”, “compound. The test plants were then grown under controlled conditions in the glasshouse (at 24/18° C., day/night; 15 hours light; 50% humidity) and watered twice daily. After 13 days the test was evaluated (100=total damage to plant; 0=no damage to plant).” for “compound.”

[9] = system: Eleusine indica (ELEIN); assay: Post-emergence biological efficacy
Protocol: as §1, with “Chenopodium album (CHEAL),” for “Lolium perenne (LOLPE),”, “(IPOHE), Eleusine indica (ELEIN), Lolium perenne (LOLPE), Digitaria sanguinalis (DIGSA),” for “(IPOHE),”, “14 days” for “one day”, “compound. The test plants were then grown under controlled conditions in the glasshouse (at 24/18° C., day/night; 15 hours light; 50% humidity) and watered twice daily. After 13 days the test was evaluated (100=total damage to plant; 0=no damage to plant).” for “compound.”

[10] = system: Euphorbia heterophylla (EPHHL); assay: Post-emergence biological efficacy
Protocol: as §1, with “Chenopodium album (CHEAL),” for “Lolium perenne (LOLPE),”, “(IPOHE), Eleusine indica (ELEIN), Lolium perenne (LOLPE), Digitaria sanguinalis (DIGSA),” for “(IPOHE),”, “14 days” for “one day”, “compound. The test plants were then grown under controlled conditions in the glasshouse (at 24/18° C., day/night; 15 hours light; 50% humidity) and watered twice daily. After 13 days the test was evaluated (100=total damage to plant; 0=no damage to plant).” for “compound.”

[11] = system: Ipomoea hederacea (IPOHE); assay: Post-emergence biological efficacy
Protocol: as §1, with “Chenopodium album (CHEAL),” for “Lolium perenne (LOLPE),”, “(IPOHE), Eleusine indica (ELEIN), Lolium perenne (LOLPE), Digitaria sanguinalis (DIGSA),” for “(IPOHE),”, “14 days” for “one day”, “compound. The test plants were then grown under controlled conditions in the glasshouse (at 24/18° C., day/night; 15 hours light; 50% humidity) and watered twice daily. After 13 days the test was evaluated (100=total damage to plant; 0=no damage to plant).” for “compound.”

[12] = system: Chenopodium album (CHEAL); assay: Post-emergence biological efficacy
Protocol: as §1, with “Chenopodium album (CHEAL),” for “Lolium perenne (LOLPE),”, “(IPOHE), Eleusine indica (ELEIN), Lolium perenne (LOLPE), Digitaria sanguinalis (DIGSA),” for “(IPOHE),”, “14 days” for “one day”, “compound. The test plants were then grown under controlled conditions in the glasshouse (at 24/18° C., day/night; 15 hours light; 50% humidity) and watered twice daily. After 13 days the test was evaluated (100=total damage to plant; 0=no damage to plant).” for “compound.”

[13] = system: Setaria faberi (SETFA); assay: Post-emergence biological efficacy
Protocol: as §1, with “Chenopodium album (CHEAL),” for “Lolium perenne (LOLPE),”, “(IPOHE), Eleusine indica (ELEIN), Lolium perenne (LOLPE), Digitaria sanguinalis (DIGSA),” for “(IPOHE),”, “14 days” for “one day”, “compound. The test plants were then grown under controlled conditions in the glasshouse (at 24/18° C., day/night; 15 hours light; 50% humidity) and watered twice daily. After 13 days the test was evaluated (100=total damage to plant; 0=no damage to plant).” for “compound.”

[14] = system: Lolium perenne (LOLPE); assay: Post-emergence biological efficacy
Protocol: as §1, with “Chenopodium album (CHEAL),” for “Lolium perenne (LOLPE),”, “(IPOHE), Eleusine indica (ELEIN), Lolium perenne (LOLPE), Digitaria sanguinalis (DIGSA),” for “(IPOHE),”, “14 days” for “one day”, “compound. The test plants were then grown under controlled conditions in the glasshouse (at 24/18° C., day/night; 15 hours light; 50% humidity) and watered twice daily. After 13 days the test was evaluated (100=total damage to plant; 0=no damage to plant).” for “compound.”

[15] = system: Echinochloa crus-galli (ECHCG); assay: Post-emergence biological efficacy
Protocol: as §1, with “Chenopodium album (CHEAL),” for “Lolium perenne (LOLPE),”, “(IPOHE), Eleusine indica (ELEIN), Lolium perenne (LOLPE), Digitaria sanguinalis (DIGSA),” for “(IPOHE),”, “14 days” for “one day”, “compound. The test plants were then grown under controlled conditions in the glasshouse (at 24/18° C., day/night; 15 hours light; 50% humidity) and watered twice daily. After 13 days the test was evaluated (100=total damage to plant; 0=no damage to plant).” for “compound.”

SMILES | pest or weed control at 250 g/ha [1] [%] | pest or weed control at 250 g/ha [2] [%] | pest or weed control at 250 g/ha [3] [%] | pest or weed control at 250 g/ha [4] [%] | pest or weed control at 250 g/ha [5] [%] | pest or weed control at 250 g/ha [6] [%] | pest or weed control at 250 g/ha [7] [%] | pest or weed control at 250 g/ha [8] [%] | pest or weed control at 250 g/ha [9] [%] | pest or weed control at 250 g/ha [10] [%] | pest or weed control at 250 g/ha [11] [%] | pest or weed control at 250 g/ha [12] [%] | pest or weed control at 250 g/ha [13] [%] | pest or weed control at 250 g/ha [14] [%] | pest or weed control at 250 g/ha [15] [%]
CCOC(=O)C[C@H](C)OC(=O)c1cc(-n2c(=O)n(C)c(=S)n(C)c2=O)ccc1Cl [Compound 1-360 (S-enantiomer), [(1S)-3-ethoxy-1-methyl-3-oxo-propyl] 2-chloro-5-(3,5-dimethyl-2,6-dioxo-4-thioxo-1,3,5-triazinan-1-yl)benzoate] | 80 | 30 | 20 | 90 | 70 | 80 | 100 | 100 | 90 | 90 | 70 | 100 | 100 | 100 | 100
CCOC(=O)C[C@H](C)OC(=O)c1cc(-n2c(=O)n(C)c(=S)n(C)c2=O)c(F)cc1Cl [Compound 1-369 (S-enantiomer), [(1S)-3-ethoxy-1-methyl-3-oxo-propyl]-2-chloro-5-(3,5-dimethyl-2,6-dioxo-4-thioxo-1,3,5-triazinan-1-yl)-4-fluoro-benzoate] | 100 | 90 | 50 | 100 | 90 | 100 | 100 | 100 | 100 | 100 | 90 | 100 | 100 | 100 | 100
CCOC(=O)CC(C)N(C)C(=O)c1cc(-n2c(=O)n(C)c(=S)n(C)c2=O)c(F)cc1Cl (stereo not drawn) [Compound 1-405, Ethyl 3-[[2-chloro-5-(3,5-dimethyl-2,6-dioxo-4-thioxo-1,3,5-triazinan-1-yl)-4-fluoro-benzoyl]-methyl-amino]butanoate] | 0 | 0 | 0 | 0 | 0 | 0 | 40 | 60 | 50 | 20 | 40 | 60 | 10 | 10 | 10
CCOC(=O)CC(CC)OC(=O)c1cc(-n2c(=O)n(C)c(=S)n(C)c2=O)c(F)cc1Cl (stereo not drawn) [Compound 1-420, (3-Ethoxy-1-ethyl-3-oxo-propyl) 2-chloro-5-(3,5-dimethyl-2,6-dioxo-4-thioxo-1,3,5-triazinan-1-yl)-4-fluoro-benzoate] | 100 | 100 | 30 | 100 | 90 | 100 | 30 | 100 | 50 | 70 | 50 | 100 | 90 | 100 | 40
CCOC(=O)C(Cl)COC(=O)c1cc(-n2c(=O)n(C)c(=S)n(C)c2=O)c(F)cc1Cl (stereo not drawn) [Compound 1-675, (2-Chloro-3-ethoxy-3-oxo-propyl) 2-chloro-5-(3,5-dimethyl-2,6-dioxo-4-thioxo-1,3,5-triazinan-1-yl)-4-fluoro-benzoate] | 100 | 80 | 40 | 90 | 90 | 100 | 90 | 100 | 90 | 90 | 100 | 100 | 90 | 80 | 80
CCOC(=O)CC1(NC(=O)c2cc(-n3c(=O)n(C)c(=S)n(C)c3=O)c(F)cc2Cl)CC1 [Compound 1-744, Ethyl 2-[1-[[2-chloro-5-(3,5-dimethyl-2,6-dioxo-4-thioxo-1,3,5-triazinan-1-yl)-4-fluoro-benzoyl]amino]cyclopropyl]acetate] | 40 | 70 | 10 | 50 | 60 | 80 | 20 | 30 | 50 | 70 | 30 | 60 | 10 | 60 | 30

Source: US20250127170A1, “TRIAZINE HERBICIDAL COMPOUNDS” (SYNGENTA CROP PROTECTION AG, priority 2021, published 2025)
